# Article PMC4604100, “Melanocortin agonists stimulate lipolysis in human adipose tissue explants but not in adipocytes” (BMC Research Notes, 2015)
# “Also recorded” adds a separate entry of the source. Where no end group is shown, it is not given here.
# Experiments:
# [1] = system: primary mouse adipocytes; conditions: mediated by MC2R and MC5R, ref [35], [37], [38]; cited from earlier work
# Text: (§1) The lack of lipolytic response seen in adipocytes is supported by previous studies by Hoch et al. [[5 ...
# [2] = system: human MCRs; assay: Binding rank order across human MCRs; conditions: order of affinity
# Protocol: (§2) The human MC1R, MC3R, MC4R and MC5R were cloned by PCR and subcloned into the pcDNA3 expression vector, as previously described by Conde-Frieboes et al.. Cells stably expressing the human MCRs were generated by transfecting the expression vector into BHK570 cells (ATTC) and using 1 mg/mL G418 to select for stable clones. The stable cell lines were cultured in DMEM with glutamax, 10 % FCS, 1 % pen/strep, and 1 mg/mL G418 at 37 °C and 5 % CO2. […] Test compounds were dissolved to a 4 mM concentration in DMSO and diluted in a receptor specific binding buffer. […] A filtration system was employed to separate bound from unbound radioligand.
# (§3) Data analysis and statistics
# [3] = system: rabbit adipocytes; conditions: ref [39] Richter et al.; cited from earlier work
# Text: MC5R is extensively distributed in the periphery, and is reported to regulate sebaceous gland secretion and fatty acid oxidation in skeletal muscle. The melanocortin system has a well-established lipolytic effect in rodent adipose tissues. Studies in murine primary adipocytes and differentiated 3T3-L1 adipocytes show a direct lipolytic effect of MC2R and MC5R when stimulated by various endogenous and synthetic melanocortin agonists.
# [4] = system: intact human white adipose tissue explants; assay: NEFA release in human WAT explants (lipolysis); type: cell-based; conditions: for stimulation of NEFA release / lipolysis (in words) / increase in NEFA release compared to vehicle: subcutaneous explants from non-obese females; for stimulation of NEFA release / lipolysis (in words): 100 nM–10 μM, 3 h, one-tailed t test vs. vehicle; for increase in NEFA release compared to vehicle: 100 nM, 3 h stimulation, mean of 6 (α-MSH 3) independent experiments in triplicate wells; for Emax of lipolysis compared to isoproterenol (in words): intact human WAT explants
# Protocol: (§4) Adipose tissue biopsies used for stimulation of lipolysis were taken from the subcutaneous abdominal region by needle aspiration as previously described. The experimental group consisted of 6 non-diabetic females with a normal/preobese BMI (average BMI = 25.5). All biopsies were transported in sterile containers to the laboratory within 30 min after removal. The biopsies were washed repeatedly with isotonic saline and were used for subsequent culture.
# (§5) Induction of NEFA and glycerol release in adipocytes and intact adipose tissue explants was used as a measure of lipolysis with β-adrenergic agonist isoproterenol as a positive control as previously described. When using propranolol, 10 μM was used as final concentration. 250 mg of human adipose tissue was placed in 15 mL tubes, immediately covered with 2.5 mL of preheated (37 °C) hyclone media and preincubated for 24 h. After 24 h, the media was replenished and explants were stimulated with the indicated melanocortin peptide for 3 h before harvesting the supernatant for NEFA and glycerol analysis. In house testing has shown no indications of hypoxia when stimulating explants (data not shown). All test compounds were dissolved to 4 mM in DMSO (highest DMSO concentration of 0.25 % in the assay) and diluted in DPBS buffer + 2 % bovine serum albumin (BSA). Human subcutaneous adipocytes purchased from Zenbio Inc., were used in stimulation of lipolysis (n = 4). These adipocytes have been isolated from obese males. When receiving the cells (and partially during transportation), the cells was differentiated from a pre-state to a mature state before the cells are used for experiments. The cells were handled according to the description from ZenBio Inc. Two hours was chosen as the optimal incubation time span for primary adipocytes, based on similar experiments in other species. […] Measures of melanocortin-stimulated glycerol release were added in explant lipolysis studies.
# (§6) Data from the NEFA and the glycerol assay were obtained using the protocol supplied by the manufactures. Released NEFAs were analyzed in Graphpad Prism and one-tailed t test was used to calculate statistical significance between 2 groups (*p < 0.05, **p < 0.01, ***p < 0.001, no * indicates insignificance). Ki values in bindings studies were calculated as Ki = IC50/1 + [radioligand]/Kd. Data from binding studies was analyzed in Graphpad Prism.
# [5] = system: intact human white adipose tissue explants; assay: Glycerol release in human WAT explants (lipolysis); type: cell-based; conditions: subcutaneous explants from non-obese females, 100 nM–10 μM, 3 h; mean of 2 independent experiments in triplicate wells
# Protocol: as §4
# Induction of NEFA and glycerol release in adipocytes and intact adipose tissue explants was used as a measure of lipolysis with β-adrenergic agonist isoproterenol as a positive control as previously described. When using propranolol, 10 μM was used as final concentration. 250 mg of human adipose tissue was placed in 15 mL tubes, immediately covered with 2.5 mL of preheated (37 °C) hyclone media and preincubated for 24 h. After 24 h, the media was replenished and explants were stimulated with the indicated melanocortin peptide for 3 h before harvesting the supernatant for NEFA and glycerol analysis. In house testing has shown no indications of hypoxia when stimulating explants (data not shown). All test compounds were dissolved to 4 mM in DMSO (highest DMSO concentration of 0.25 % in the assay) and diluted in DPBS buffer + 2 % bovine serum albumin (BSA). Human subcutaneous adipocytes purchased from Zenbio Inc., were used in stimulation of lipolysis (n = 4). These adipocytes have been isolated from obese males. When receiving the cells (and partially during transportation), the cells was differentiated from a pre-state to a mature state before the cells are used for experiments. […]
# as §6
# [6] = system: adipocytes isolated from subcutaneous adipose tissue; conditions: adipocytes isolated from subcutaneous adipose tissue of non-diabetic human; ref [53] Xue et al.; cited from earlier work
# Text: (§7) ACTH is a larger peptide than both α-MSH and the synthetic melanocortin compounds used in this study.
# [7] = system: adipocytes or intact human adipose tissue; conditions: own finding "supported by other studies", ref [51], [52]; cited from earlier work
# Text: as §7
# [8] = system: human subcutaneous adipocytes; assay: NEFA release in differentiated human subcutaneous adipocytes; type: cell-based; conditions: for stimulation of NEFA release (in words): human subcutaneous adipocytes (ZenBio, obese males), 1 pM–10 μM, n = 4
# Protocol: as §5, §6
# [9] = system: human white adipose tissue (WAT) explants; assay: NEFA release in human WAT explants ± propranolol; type: cell-based
# Protocol: as §4, §5, §6
# [10] = system: WAT; parameters: method as in earlier work; conditions: intranasal administration; ref [50] Wellhöner et al.; cited from earlier work
# Text: However, it should be taken into account, that there may be downstream MCR mechanisms of propranolol that are unknown, which is a precaution using this antagonist. Depleting the explants with reserpine before stimulation could add additional confidence to the ...
# [11] = system: MC3R; conditions: antagonist; ref [47]; cited from earlier work
# [12] = molecular target: T1, hMC1R (Homo sapiens, UniProt Q01726); assay: Competition binding of 125I-NDP-α-MSH to membranes of BHK570 cells expressing hMC1R; conditions: competition with fixed 125I-NDP-α-MSH, test compound 1 pM–10 μM, filtration, average of repeated independent experiments ± SEM, n = 3 (α-MSH n = 18)
# T1 construct: expressed in transfected cells
# T1 sequence (Q01726 whole entry): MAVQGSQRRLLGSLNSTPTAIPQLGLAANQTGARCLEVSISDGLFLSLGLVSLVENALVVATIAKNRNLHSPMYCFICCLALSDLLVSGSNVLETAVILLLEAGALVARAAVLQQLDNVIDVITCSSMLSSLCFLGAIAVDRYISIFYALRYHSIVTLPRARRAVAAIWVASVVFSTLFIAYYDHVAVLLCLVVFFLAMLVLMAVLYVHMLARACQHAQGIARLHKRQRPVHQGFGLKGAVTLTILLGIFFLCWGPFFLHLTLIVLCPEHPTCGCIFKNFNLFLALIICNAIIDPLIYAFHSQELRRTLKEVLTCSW
# Protocol: as §2, §3
# [13] = system: MC5R; conditions: agonist; ref [47]; cited from earlier work
# [14] = system: MC4R over MC1R; conditions: factor; ref [46] Greenfield et al.; cited from earlier work
# [15] = system: MC4R over MC3R; conditions: factor; ref [46] Greenfield et al.; cited from earlier work
# [16] = system: mesenchymal stem cell-derived adipocytes; intact adipose tissue explants; conditions: mesenchymal stem cell-derived adipocytes or intact adipose tissue explants; ref [52] Hoch et al.; cited from earlier work
# Text: as §1
# [17] = system: mesenchymal stem cell-derived adipocytes; conditions: ref [52] Hoch et al.; cited from earlier work
# Text: as §1
compound,measurement,setting,value
SYSMEHFRWGKPVGKKRRPVKVYPNGAEDESAEAFPLEF [ACTH],lipolytic capacity (in words),[1],lipolytic capacity
same,binding rank order,[2],MC1R > MC4R > MC3R > MC5R
same,effect on lipolysis (in words),[3],direct effect
same,lipolytic capacity (in words),[4]; intact human adipose tissue,no lipolytic capacity
same,stimulation of NEFA release / lipolysis (in words),[4],failed to stimulate NEFA
same,stimulation of glycerol release (in words),[5],failed to stimulate NEFA and glycerol release
same,stimulation of lipolysis (in words),[6],stimulated lipolysis
same,lipolytic capacity (in words),[7],no lipolytic capacity
same,lipolytic capacity (in words),[8]; adipocytes,no lipolytic capacity
same,stimulation of NEFA release (in words),[8],failed to stimulate NEFA release
CC(C)NCC(O)c1ccc(O)c(O)c1 (stereo not drawn) [isoproterenol],increase in NEFA release compared to vehicle,[4],114%
same,stimulation of NEFA release / lipolysis (in words),[4],potent release of NEFA
same,stimulation of NEFA release (in words),[8],potent release of NEFA
CC(C)NCC(O)COc1cccc2ccccc12 (stereo not drawn) [propranolol],decrease of LY2112688-stimulated NEFA release (in words),"[9]; 10 μM propranolol + LY2112688 (100 nM–10 μM), female human subcutaneous explants, 3 independent experiments in triplicate wells",did not significantly decrease the release of NEFA
same,decrease of PG-901-stimulated NEFA release (in words),"[9]; 10 μM propranolol + PG-901 (100 nM–10 μM), female human subcutaneous explants, 3 independent experiments in triplicate wells",significantly decreased the release of NEFA
same,decrease of isoproterenol-stimulated NEFA release (in words),"[9]; 10 μM propranolol + isoproterenol, female human subcutaneous explants, 3 independent experiments in triplicate wells",significantly decreased the release of NEFA
same,inhibition of NEFA release on co-incubation (in words),"[9]; propranolol co-incubation, MC4R/MC5R-mediated lipolysis, overview figure",inhibits NEFA release
"MSH/ACTH(4-10): intranasally administered melanocortin fragment in Wellhöner et al. (MEHFRWG; Corticotropin; UniProt P01189 141-147, looked up, fragment)",glycerol concentrations in WAT (in words),[10],increased glycerol concentrations in WAT
CCCC[C@H](NC(C)=O)C(=O)N[C@H]1CC(=O)NCCCC[C@@H](C(N)=O)NC(=O)[C@H](Cc2c[nH]c3ccccc23)NC(=O)[C@H](CCCNC(=N)N)NC(=O)[C@@H](Cc2ccc3ccccc3c2)NC(=O)[C@@H]2CCCN2C1=O [PG-901],binding to MC3R (in words),[11],high affinity
same,increase in NEFA release compared to vehicle,[4],38%
same,Emax of lipolysis compared to isoproterenol (in words),[4],relatively lower Emax
same,stimulation of NEFA release / lipolysis (in words),[4],"significantly stimulated lipolysis; also recorded: stimulated a low, though significant, release of NEFA; also recorded: significantly stimulate release of NEFA"
same,Ki,[12],2.7 ± 0.153 µM
same,stimulation of glycerol release (in words),[5],stimulated release of glycerol
same,binding to MC5R (in words),[13],high affinity
same,stimulation of NEFA release (in words),[8],failed to stimulate NEFA release
CC(=O)N[C@H](CCCNC(=N)N)C(=O)N[C@H]1CSSC[C@@H](C(N)=O)NC(=O)[C@H](Cc2c[nH]c3ccccc23)NC(=O)[C@H](CCCNC(=N)N)NC(=O)[C@@H](Cc2ccccc2)NC(=O)[C@H](Cc2c[nH]cn2)NC(=O)[C@H](CCC(=O)O)NC1=O [LY2112688],increased affinity for MC4R over MC1R,[14],more than 30
same,binding rank order,[2],MC4R > MC3R > MC1R
same,increase in NEFA release compared to vehicle,[4],46%
same,Emax of lipolysis compared to isoproterenol (in words),[4],relatively lower Emax
same,stimulation of NEFA release / lipolysis (in words),[4],"significantly stimulated lipolysis; also recorded: stimulated a low, though significant, release of NEFA; also recorded: significantly stimulate release of NEFA"
same,increased affinity for MC4R over MC3R,[15],more than 100
same,stimulation of glycerol release (in words),[5],stimulated release of glycerol
same,stimulation of NEFA release (in words),[8],failed to stimulate NEFA release
NDP-α-MSH,effect on lipolysis (in words),[16],did not find an effect on lipolysis
same,cAMP response (in words),[17],weak cAMP response
